# Structures can show the parent of a compound that is named as a salt.
# Test system: participants diagnosed with at least moderate post-traumatic stress disorder (PTSD)
# Test: Double-blind, randomized, placebo-controlled clinical trial of methylone-assisted psychotherapy in PTSD
# Type: in vivo, human
# Protocol: A multicenter, randomized, double-blind, placebo-controlled trial is conducted to assess the efficacy and safety of methylone-assisted psychotherapy versus psychotherapy with placebo control in participants diagnosed with at least moderate post-traumatic stress disorder (PTSD).
# This multicenter, randomized, double-blind, placebo-controlled trial is conducted at various sites in the United States with IRB approval from each study site. A flexible dose of methylone hydrochloride salt or placebo, followed by a supplemental half-dose unless contraindicated by patient's previous response or medical history, is also administered during the Treatment Period with psychotherapy in at least 3 blinded monthly Experimental Sessions. The Supplemental Dose extends the duration of drug effects on the participants during an Experimental Session. Methylone test groups are further subdivided into specific groups receiving only racemic methylone hydrochloride salt, S-methylone hydrochloride salt, or R-methylone hydrochloride salt. An optional Risk Evaluation and Mitigation Strategy (REMS) Protocol may be implemented for the racemic methylone, S-methylone, and placebo-groups. The Treatment Period lasts for approximately 12 weeks. During the Treatment Period, each Experimental Session is followed by three Intervening Sessions of non-drug psychotherapy. Each Experimental Session involves an overnight stay. The Primary Outcome measure, the change in Clinician Administered PTSD Scale for DSM-5 (CAPS-5), is determined by a blinded Independent Rater (IR) pool multiple times throughout the study. The study consists of separate periods for each participant. Initially, prospective participants undergo a Screening Period involving an initial eligibility assessment, a medical history intake, informed consent, and enrollment of eligible participants. Next, a Preparation Period is undertaken for enrolled participants involving medication tapering and clinical baseline assessments to confirm each participant meets enrollment criteria. As part of the Preparation Period, a detailed assessment of co-morbidities to PTSD is recorded. Participants may remain on prescribed courses of selective serotonin reuptake inhibitor (SSRI) or serotonin and norepinephrine reuptake inhibitor (SNRI) treatment. Dosages and/or frequency of administration of a prescribed SSRI or SNRI may be adjusted to fit within study parameters. Participants may be required to taper a prescribed course of medication in order to maintain eligibility within the study. The Treatment Period consists of three monthly Experimental Sessions and associated Intervening Sessions of integrative behavioral psychotherapy. The Treatment Period lasts approximately 12 weeks. Following the Treatment Period is a Follow-up Period and Study Conclusion. During the Follow-up Period and Study Conclusion, participants complete 4 weeks with no study visits, followed by a Study Conclusion visit.
# This study compares the effects of three blinded Experimental Sessions of psychotherapy in combination with flexible doses of methylone or placebo administered as described below. Non-drug preparatory and intervening psychotherapy sessions are also included. Patient's weight is determined for dosage calculation. Initial dose is 100 mg unless this will result in a dosage of less than 1.5 mg/kg of patient weight. Initial dose thereby adjusted upward in 25 mg increments to deliver the lowest dose possible of at least 1.5 mg/kg of patient weight. Initial dose for Experimental Session 2 and 3 is cumulative dose calculated by adding the initial dose plus REMS protocol dose used the previous Experimental Session for each patient.
# Randomization occurs prior to the initiation of Experimental Session 1. Each participant is provided the next randomized number in a sequence by a blinded study monitor. […]
# [1] = Study Conclusion, vs placebo-treated controls
compound,measurement,setting,value
"CNC(C)C(=O)c1ccc2c(c1)OCO2 (racemic) [(rac)-Methylone Hydrochloride, 3,4-methylenedioxy-N-methylcathinone hydrochloride]",CAPS-5 assessments compared to placebo-treated controls,"Intervening Session 1C, 2C, 3C and Study Conclusion",Significant improvements in CAPS-5 assessments
same,daytime sleepiness as measured by ESS,Study Conclusion,significant improvement in lessening daytime sleepiness
same,clinician-rated functional impairment score as measured by SDS,[1],significant improvement in clinician-rated functional impairment score
same,depression as measured by HAM-D,[1],significant improvement depression
same,change in CAPS-5 assessment compared to the placebo group,"Study Conclusion, 100-200 mg p.o. initial dose, 3 Experimental Sessions with psychotherapy",significant mean reduction in CAPS-5 assessment

# Reference: patent publication US12234216B2, “Isotopologues salts, crystalline forms, stereoisomers, of methylone and ethylone and methods of use thereof” (Terran Biosciences Inc., priority 2021, dated 2025)
